Experimental data reported in patent US20050101002A1, “Process for production of low temperature active alkaline protease from a deep-sea fungus” (COUNCIL OF SCIENTIFIC & INDUSTRIAL RESEARCH, priority 2003, published 2005).
Entries after “also recorded” stand apart in the source; their conditions may differ.

Tested on: protease of Aspergillus sp. MTCC 5102
Test: Protease assayed in the presence of EDTA, PMSF, HgCl2
Type: biochemical
Settings: for Inhibition of protease activity (in words): assayed in the presence of the additive
Experimental: The said fungus Aspergillus sp. MTCC 5102 is grown in malt extract broth containing 2% malt extract and 0.3% peptone in sea water. The 7-day old fungal mat obtained this way was macerated and used as a starter inoculum for the experimental cultures containing glucose or cellulose at a concentration of 1% (w/v). Casein, spray-dried dairy whitener, soybean meal, molasses or corn steep liquor at a 1% concentration was used as the organic nitrogen source. The Czapek Dox broth to which the above mentioned nitrogen-containing substrates were added independently, contained 10 g glucose, 2 g NaNO3, 1 g K2HPO4, 0.5 g MgSO4, 0.5 g KCl and 0.01 g Fe2SO4 L^−1 medium. The pH of the medium was adjusted to 7.0 or 9.0. This medium was prepared with distilled water or sea water. The cultures were grown as shallow static cultures for 4-6 days. The cell-free clear supernatant obtained after filtration through GF/F filters followed by 0.22 μm Nuclepore filters was used as the source of alkaline protease. Protease activity was measured using Azocasein (Sigma Chemicals, Mo, USA) at 2% concentration. Azocasien Units (ACU) released at various temperatures and pH combinations were measured at 440 nm and expressed as an increase in absorbance by 0.001 in 1 minute (Alfredsson, G. A, Gudmundsson H. M., Xiang J. Y., Kristjansson M. M. 1995, Subtilisin-like serine proteases from psychrophilic marine bacteria. J. Mar. Biotech. 3: 71-72). Substrate and enzyme blanks were maintained for all the assays. All the assays were run in triplicates.
The said fungus Aspergillus sp. MTCC 5102 was grown as described in Example 1 and the clear supernatant was used for testing whether the protease enzyme was serine or metalloprotease. For this purpose the enzyme was assayed in the presence of 50 mM […] (EDTA), 2 mM phenylmethylsulfonyl fluoride (PMSF) and 200 μM mercuric chloride (HgCl2).

| SMILES | % inhibition (200 μM) | Residual specific activity (%) (200 μM) | Inhibition of protease activity (in words) | % inhibition (50 mM) | Residual specific activity (%) (50 mM) | % inhibition (2 mM) | Residual specific activity (%) (2 mM) |
| --- | --- | --- | --- | --- | --- | --- | --- |
| [Cl][Hg][Cl] [HgCl2, mercuric chloride] | 14% | 86% | not inhibited |  |  |  |  |
| O=C(O)CN(CCN(CC(=O)O)CC(=O)O)CC(=O)O [EDTA, ethylenediamine tetraacetic acid] |  |  | not inhibited; also recorded: no inhibition of activity | 6% | 94% |  |  |
| O=S(=O)(F)Cc1ccccc1 [PMSF, phenylmethylsulfonyl fluoride] |  |  | totally inhibited; also recorded: inhibition of the activity |  |  | 100% | 0% |
